In US7754866B2 (Arena Pharmaceuticals, Inc., priority 1997, dated 2010):
Substitutions are numbered along the chain they refer to. Several values for one entry are separate records, joined by “and”; a condition that tells them apart may be missing. Equal values may be shown once. Read-outs that look alike come from different tables or passages of the source.

How the values were obtained:
[1] = molecular target: T1, mutated human 5HT2C receptor (AP-1) (Homo sapiens, UniProt P28335, S310K); assay: Competitive binding assay, [3H]mesulergine, AP-1; settings: Competitive Binding AP-1 ([3H]mesulergine) IC50 Value (μM), 1 nM [3H]mesulergine, COS7 membranes
T1 construct: expressed in transfected cells; host or cells: COS7 cells, pCMV vector, transient
T1 sequence (P28335 33-458 S310K): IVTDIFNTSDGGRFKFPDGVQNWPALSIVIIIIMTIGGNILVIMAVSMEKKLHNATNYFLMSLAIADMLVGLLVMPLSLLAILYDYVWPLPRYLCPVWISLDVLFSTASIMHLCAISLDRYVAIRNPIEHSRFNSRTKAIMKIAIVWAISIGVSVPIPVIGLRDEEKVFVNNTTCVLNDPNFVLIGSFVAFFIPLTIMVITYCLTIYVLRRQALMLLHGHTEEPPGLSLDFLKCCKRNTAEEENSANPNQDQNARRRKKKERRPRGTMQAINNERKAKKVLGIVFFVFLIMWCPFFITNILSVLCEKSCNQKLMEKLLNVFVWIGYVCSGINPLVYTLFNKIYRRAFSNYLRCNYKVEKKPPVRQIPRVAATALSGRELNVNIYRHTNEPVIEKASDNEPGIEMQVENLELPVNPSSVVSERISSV

[2] = molecular target: T2, constitutively active mutant human 5HT2C receptor AP-1 (Homo sapiens, UniProt P28335, S310K); assay: [35S]GTPγS binding assay with membranes of COS7 cells expressing AP-1; format: biochemical
T2 construct: expressed in transfected cells; host or cells: COS7 cells, pCMV vector, transient
T2 sequence (P28335 33-458 S310K): T1 sequence (P28335 33-458 S310K)

[3] = test system: amphetamine-stimulated locomotion; assay: Amphetamine-stimulated locomotor activity; format: in vivo, Sprague-Dawley rats; settings: rats, s.c. 0.1, 1.0, 5.0 mg/kg; with exception of the highest dose (10 mg/kg); d-amphetamine sulfate 1.0 mg/kg
Description: A 5HT2A receptor antagonist or inverse agonist is expected to decrease amphetamine-stimulated locomotion without affecting baseline locomotion See, for example, Soresnon, et al, 266(2) J. Pharmacol. Exp. Ther. 684 (1993). […] For the following study, the following parameters and protocol were utilized:
Adult male Sprague-Dawley rats were utilized for these studies. Animals were housed in groups of 2-3 in hanging plastic cages with food and water available at all times. Animals were weighed and handled for at least one day prior to surgery and throughout the studies. For these studies, Vehicle consisted of 90% ethanol (100%) and 10% water.
A San Diego Instruments Flex Field apparatus was used to quantify baseline and amphetamine-stimulated locomotor activity. This apparatus consists of four 16″×16″ clear plastic open fields. Photocell arrays (16 in each dimension) interfaced with a personal computer to automatically quantify activity. Several measures of activity can be assessed with the apparatus, including total photocell beam breaks. Animals (vehicle control and Compound treated) were injected s.c. 30 minutes prior to initiation of analysis. Following this 30 minute period, animals were placed individually into an open field and baseline activity was assessed for 30 minutes (habituation phase). […]

[4] = molecular target: T3, human mutated 5HT2A receptor, AP-3 (Homo sapiens, UniProt P28223, T25N, form not given); assay: Inositol phosphate accumulation assay, AP-3; format: cell-based; settings: summary statement;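 also: transfected 293 cells prelabeled with 3H-inositol, exposed to compound 120 min at 37 °C with LiCl and pargyline, inositol trisphosphates isolated by anion exchange and counted by scintillation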
T3 construct: rows headed: inverse agonist activity at the human 5HT2A receptor; other: summary statement; fused on or other part: Possibly intracellular loop 3 and cytoplasmic tail of human 5-HT2C (P28335), if the statement rests on AP-3
T3 sequence (P28223 whole entry T25N, looked up, form open, the tested form may be a part): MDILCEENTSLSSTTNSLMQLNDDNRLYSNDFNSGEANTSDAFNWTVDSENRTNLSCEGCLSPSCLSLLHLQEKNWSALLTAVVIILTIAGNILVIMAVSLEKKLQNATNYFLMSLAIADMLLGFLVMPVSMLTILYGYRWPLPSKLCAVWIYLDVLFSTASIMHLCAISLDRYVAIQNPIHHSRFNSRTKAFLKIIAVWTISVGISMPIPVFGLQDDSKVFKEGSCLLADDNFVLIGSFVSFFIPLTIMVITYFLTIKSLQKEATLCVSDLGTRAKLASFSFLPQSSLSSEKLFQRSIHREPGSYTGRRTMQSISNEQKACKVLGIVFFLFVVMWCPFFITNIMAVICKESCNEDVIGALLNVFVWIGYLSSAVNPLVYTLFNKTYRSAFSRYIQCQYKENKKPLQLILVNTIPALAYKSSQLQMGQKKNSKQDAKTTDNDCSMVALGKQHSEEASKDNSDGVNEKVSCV

[5] = molecular target: T4, wild type human 5HT2A receptor (Homo sapiens, UniProt P28223); assay: Competitive binding assay, [3H]LSD, WT 5HT2A
T4 construct: expressed in transfected cells; host or cells: COS-7 cells, pCMV vector
T4 sequence (P28223 whole entry T25N/H452Y): as the sequence (P28223 whole entry T25N, looked up, form open, the tested form may be a part) above, with H452Y counted along it

[6] = molecular target: T5, human mutated 5HT2A receptor, AP-3 (Homo sapiens, UniProt P28223, T25N); assay: Inositol phosphate accumulation assay, AP-3; format: cell-based; settings: for remaining activity at 10 µM: read-out: IP3 % of Control;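 as to all read-outs here: transfected 293 cells prelabeled with 3H-inositol, exposed to compound 120 min at 37 °C with LiCl and pargyline, inositol trisphosphates isolated by anion exchange and counted by scintillation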
T5 construct: Inositol Phosphate Accumulation AP-3 IC50 Value (nM); other: several concentrations; IP3 % of Control; other: one concentration of 10 μM, triplicate; control without test compound
T5 sequence (P28223 whole entry T25N, looked up): as the sequence (P28223 whole entry T25N, looked up, form open, the tested form may be a part) above

[7] = test system: dopamine D2 receptors (caudate nucleus); assay: I125-LSD displacement from rat brain sections, caudate nucleus; format: binding, Sprague-Dawley rats; settings: 1 micromolar compound, 1 nanomolar I125-LSD, autoradiography
[8] = molecular target: T6, 5HT2A receptors (fourth layer of the cerebral cortex) (Rattus norvegicus, UniProt P14842); assay: I125-LSD displacement from rat brain sections, cerebral cortex; format: binding, Sprague-Dawley rats; settings: 1 micromolar compound, 1 nanomolar I125-LSD, autoradiography
T6 construct: from tissue; host or cells: horizontal sections of Sprague-Dawley rat brain, cerebral cortex
T6 sequence (P14842 whole entry): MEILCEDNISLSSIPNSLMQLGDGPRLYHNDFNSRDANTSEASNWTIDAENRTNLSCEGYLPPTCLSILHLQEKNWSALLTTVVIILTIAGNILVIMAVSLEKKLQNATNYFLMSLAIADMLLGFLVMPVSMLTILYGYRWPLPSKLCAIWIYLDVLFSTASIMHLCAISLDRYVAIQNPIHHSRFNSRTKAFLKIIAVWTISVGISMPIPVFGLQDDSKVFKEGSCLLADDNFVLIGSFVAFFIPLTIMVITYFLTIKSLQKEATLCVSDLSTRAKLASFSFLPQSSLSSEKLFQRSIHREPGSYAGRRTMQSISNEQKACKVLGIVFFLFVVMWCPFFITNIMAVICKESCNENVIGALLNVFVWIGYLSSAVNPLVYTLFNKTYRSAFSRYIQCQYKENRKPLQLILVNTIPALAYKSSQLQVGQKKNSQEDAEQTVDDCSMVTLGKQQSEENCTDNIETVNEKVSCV

[9] = molecular target: T7, endogenous human 5-HT2C receptor (Homo sapiens, UniProt P28335)
T7 sequence (P28335 33-458): T1 sequence (P28335 33-458 S310K) with K278S

[10] = 12.5 μg COS7 membranes expressing AP-1, 1 μM GDP, eight concentrations in triplicate, read-out: IC50 (nM) in GTP-γ-[35S] Assay
[11] = competitive binding using LSD, read-out: WT 5HT2A LSD IC50
[12] = several concentrations, read-out: IP3 AP-3 IC50
[13] = one concentration of 10 μM, triplicate, control without test compound

Cn1cc(Br)c(-c2cccc(NC(=O)c3ccc(Cl)cc3)c2)n1 [Compound 116120, N-[3-(4-bromo-1-methylpyrazol-3-yl)phenyl][4-chlorophenyl]carboxamide]
IC50 [1]: 1.2 µM | melting point: 184.4 to 184.8 °C

Clc1ccc2c(c1)N=C(N1CCNCC1)c1ccccc1N2 [Normethylclozapin]
IC50 [2, 10]: 21.4 nM

Cn1cc(Br)c(-c2cccc(NC(=O)c3cccs3)c2)n1 [Compound 116102, N-[3-(4-bromo-1-methylpyrazol-3-yl)phenyl][2-thienyl]carboxamide]
amphetamine-stimulated locomotion (photobeam breaks) [3]: decrease | inverse agonist activity at the human 5HT2A receptor [4]: potent inverse agonist | IC50 [1]: 2.8 µM | melting point: 127.8 to 128.6 °C

Cn1cc(Br)c(-c2cccc(NC(=O)NCc3ccc(OC(F)(F)F)cc3)c2)n1 [Compound 116115]
IC50 [1]: 1.2 µM | melting point: 144.6 to 145.8 °C

CSc1ccc2c(c1)C(N1CCN(C)CC1)Cc1ccccc1S2 (stereo not shown) [Methiothepin]
IC50 [2, 10]: 20.4 nM

Cn1cc(Br)c(-c2cccc(NC(=O)c3ccc(OC(F)(F)F)cc3)c2)n1 [Compound 116101, N-[3-(4-bromo-1-methylpyrazol-3-yl)phenyl][4-trifluoromethoxyphenyl]carboxamide]
melting point: 138.6 to 139.6 °C

CC[C@@H](CO)NC(=O)[C@@H]1C=C2c3cccc4c3c(cn4C)C[C@H]2N(C)C1 [Methysergide]
IC50 [2]: 6.1 nM

Cc1nc2sccn2c(=O)c1CCN1CCC(=C(c2ccc(F)cc2)c2ccc(F)cc2)CC1 [Ritanserin]
IC50 ([2]; read-out: IC50 (nM) in GTP-γ-[35S] Assay): 19.4 nM

Cc1cccc(NC(=O)Nc2cccc(-c3nn(C)cc3Br)c2)c1 [Compound 116112, [{3-(4-bromo-1-methylpyrazol-3-yl)phenyl}-amino]-N-(3-methylphenyl)carboxamide]
IC50 [5, 11]: 57 nM | remaining activity at 10 µM [6]: 14%

Cn1cc(Br)c(-c2cccc(NC(=O)Nc3cccc(Cl)c3)c2)n1 [Compound 116105, {[3-(4-bromo-1-methylpyrazol-3-yl)phenyl]-amino}-N-(3-chlorophenyl)carboxamide]
IC50 [5, 11]: 39 nM | remaining activity at 10 µM [6]: 11%

COc1ccccc1CC(=O)Nc1cccc(-c2nn(C)cc2Br)c1 [Compound 116178, N-[3-(4-bromo-1-methylpyrazol-3-yl)phenyl]-2-(2-methoxyphenyl)acetamide]
IC50 [5, 11]: 2300 nM | IC50 [6, 12]: 0.165 µM

Cc1ccccc1NC(=O)Nc1cccc(-c2nn(C)cc2Br)c1 [Compound 116092, {[3-(4-bromo-1-methylpyrazol-3-yl)phenyl]amino}-N-(2-methylphenyl)carboxamide]
IC50 [5, 11]: 131 nM | remaining activity at 10 µM [6, 13]: 32%

COc1ccc(OC(=O)Nc2cccc(-c3nn(C)cc3Br)c2)cc1 [Compound 116100, N-[3-(4-bromo-1-methylpyrazol-3-yl)phenyl][4-methoxyphenoxy]carboxamide]
IC50 [5]: < 1 nM | IC50 ([6]; Inositol Phosphate Accumulation AP-3 IC50 Value (μM)): 0.0003 µM | displacement of I125-LSD from the caudate (dopamine D2) [7]: not the caudate | displacement of I125-LSD from the cortex (5HT2A) [8]: selectively displace | IC50 [1]: 1.8 µM | melting point: 140.3 to 141.8 °C

Cn1cc(Br)c(-c2cccc(NC(=O)Nc3ccc(F)cc3)c2)n1 [Compound 116082, {[3-(4-bromo-1-methylpyrazol-3-yl)phenyl]-amino}-N-(4-fluorophenyl)carboxamide]
difference in selectivity preference (IC50 values) for the 5HT2A receptor compared with the 5HT2C receptor ([5]; 5HT2A versus 5HT2C): 100 fold | IC50 [5, 11]: 7 nM | remaining activity at 10 µM [6]: 11%

COc1cccc(NC(=O)Nc2cccc(-c3nn(C)cc3Br)c2)c1 [Compound 116111, {[3-(4-bromo-1-methylpyrazol-3-yl)phenyl]-amino}-N-(3-methoxyphenyl)carboxamide]
IC50 [5, 11]: 106 nM | remaining activity at 10 µM [6, 13]: 7%

CSc1ccc(NC(=O)Nc2cccc(-c3nn(C)cc3Br)c2)cc1 [Compound 116079, N-[3-(4-bromo-1-methylpyrazol-3-yl)phenyl][(4-methylthiophenyl)amino]carboxamide]
IC50 [5, 11]: 4 nM | remaining activity at 10 µM [6]: 16% | IC50 [6, 12]: 0.017 µM

O=C(CCCN1CCC2(CC1)C(=O)NCN2c1ccccc1)c1ccc(F)cc1 [spiperone, reference compound]
displacement of I125-LSD from the caudate (dopamine D2) [7]: displaces | displacement of I125-LSD from the cortex (5HT2A) [8]: displaces

CN1CCN2c3ccccc3Cc3ccccc3C2C1 (stereo not shown) [mianserin]
effect on basal constitutive binding of [35S]GTPγS [9]: partial inverse agonist | inhibition of serotonin-stimulated [35S]GTPγS binding ([9]; 30 μM): completely inhibited

Cn1cc(Br)c(-c2cccc(NC(=O)Nc3ccc(OC(F)(F)F)cc3)c2)n1 [Compound 103487, N-[3-(4-bromo-1-methylpyrazol-3-yl)phenyl][{(4-trifluoromethoxy)phenyl}amino]carboxamide]
IC50 ([5]; 1 nM [3H]LSD, COS7 membranes, read-out: Competitive Binding WT 5HT2A ([3H]LSD) IC50 Value): 46 nM | IC50 ([6]; read-out: Inositol Phosphate Accumulation AP-3 IC50 Value): 0.052 µM and 0.09 µM

Cn1cc(Br)c(-c2cccc(NC(=O)NC3CCCCC3)c2)n1 [Compound 116141, N-[3-(4-bromo-1-methylpyrazol-3-yl)phenyl]-[cyclohexylamino]carboxamide]
IC50 [5, 11]: 81 nM | IC50 [6, 12]: 0.114 µM
